Assay results as given in the CheMixHub viscosity set.
Values joined by “and” are separate entries in the source; they are usually repeats but may differ in a detail not shown here. Equal values may be shown once. ± gives the uncertainty stated by the source.

What was measured:
[1] = xn = mol fraction of the nth substance listed

CCCOCCO
viscosity (293.15 K, 101 kPa): 2.575 ± 0.024 mPa·s
viscosity (298.15 K, 101 kPa): 2.35 ± 0.018 mPa·s and 2.35 ± 0.023 mPa·s
viscosity (298.15 K, 101.33 kPa): 2.351 ± 0.029 mPa·s
viscosity (303.15 K, 101 kPa): 2.07 ± 0.016 mPa·s and 2.124 ± 0.021 mPa·s
viscosity (308.15 K, 101.33 kPa): 1.895 ± 0.024 mPa·s
viscosity (318.15 K, 101.33 kPa): 1.448 ± 0.018 mPa·s

CCCCC[N+](CC)(CC)CC.O=S(=O)([N-]S(=O)(=O)C(F)(F)F)C(F)(F)F
viscosity (293.15 K, 101.3 kPa): 233 ± 47 mPa·s
viscosity (298.15 K, 101.3 kPa): 169 ± 34 mPa·s
viscosity (303.15 K, 101.3 kPa): 126 ± 25 mPa·s
viscosity (308.15 K, 101.3 kPa): 96.4 ± 19 mPa·s
viscosity (313.15 K, 101.3 kPa): 75.1 ± 15 mPa·s
viscosity (318.15 K, 101.3 kPa): 59.6 ± 12 mPa·s
viscosity (323.15 K, 101.3 kPa): 48 ± 9.6 mPa·s

C[C@H]1CCCC[C@H]1O
viscosity (298.15 K, 101 kPa): 17.98 ± 0.22 mPa·s
viscosity (303.15 K, 101 kPa): 13.53 ± 0.18 mPa·s

CCCC[n+]1ccccc1.O=S(=O)([N-]S(=O)(=O)C(F)(F)F)C(F)(F)F
viscosity (293.15 K, 100 kPa): 68.87 ± 1.5 mPa·s
viscosity (298.15 K, 100 kPa): 52.94 ± 1.1 mPa·s
viscosity (303.15 K, 100 kPa): 41.94 ± 0.88 mPa·s
viscosity (303.15 K, 101 kPa): 49.4 ± 1.2 mPa·s
viscosity (308.15 K, 100 kPa): 33.75 ± 0.71 mPa·s
viscosity (313.15 K, 100 kPa): 27.63 ± 0.58 mPa·s
viscosity (313.15 K, 101 kPa): 33.8 ± 0.8 mPa·s
viscosity (323.15 K, 101 kPa): 24.2 ± 0.6 mPa·s

CCOP(=O)([O-])OCC.CCn1cc[n+](C)c1
viscosity (293.15 K, 100 kPa): 566 ± 43 mPa·s
viscosity (298.15 K, 100 kPa): 396.6 ± 29 mPa·s
viscosity (303.15 K, 100 kPa): 285.4 ± 20 mPa·s
viscosity (308.15 K, 100 kPa): 208.7 ± 14 mPa·s
viscosity (313.15 K, 100 kPa): 155.3 ± 10 mPa·s
viscosity (318.15 K, 100 kPa): 117.2 ± 7.5 mPa·s
viscosity (323.15 K, 100 kPa): 91.75 ± 5.8 mPa·s

CCCCOCCCOCCCO
viscosity (298.15 K, 101.33 kPa): 4.503 ± 0.064 mPa·s
viscosity (308.15 K, 101.33 kPa): 3.313 ± 0.048 mPa·s
viscosity (318.15 K, 101.33 kPa): 2.531 ± 0.037 mPa·s

NNc1ccccc1
viscosity (303.15 K, 101 kPa): 10.09 ± 0.27 mPa·s
viscosity (323.1 K, 101 kPa): 4.58 ± 0.1 mPa·s and 4.58 ± 0.096 mPa·s

N#Cc1ccccc1
viscosity (293.15 K, 101 kPa): 1.335 ± 0.035 mPa·s
viscosity (293.15 K, 101.33 kPa): 1.382 ± 0.072 mPa·s
viscosity (298.15 K, 101 kPa): 1.237 ± 0.032 mPa·s and 1.196 ± 0.012 mPa·s and 1.249 ± 0.034 mPa·s
viscosity (298.15 K, 101.33 kPa): 1.282 ± 0.067 mPa·s
viscosity (303 K, 100 kPa): 1.099 ± 0.11 mPa·s
viscosity (303.15 K, 101 kPa): 1.161 ± 0.03 mPa·s and 1.121 ± 0.014 mPa·s and 1.124 ± 0.01 mPa·s
viscosity (303.15 K, 101.32 kPa): 1.139 ± 0.0041 mPa·s
viscosity (303.15 K, 101.33 kPa): 1.148 ± 0.02 mPa·s
viscosity (308 K, 100 kPa): 1.003 ± 0.1 mPa·s
viscosity (308.15 K, 101.33 kPa): 1.063 ± 0.02 mPa·s and 1.063 ± 0.018 mPa·s
viscosity (313 K, 100 kPa): 0.9545 ± 0.096 mPa·s
viscosity (313.15 K, 101 kPa): 0.997 ± 0.026 mPa·s
viscosity (313.15 K, 101.33 kPa): 0.993 ± 0.017 mPa·s
viscosity (318.15 K, 101 kPa): 0.931 ± 0.025 mPa·s
viscosity (323.15 K, 101 kPa): 0.872 ± 0.023 mPa·s and 0.866 ± 0.023 mPa·s

NCCOCCOCCN.O=S(=O)([N-]S(=O)(=O)C(F)(F)F)C(F)(F)F.[Li+]
viscosity (323.15 K, 101 kPa): 108.2 ± 6.5 mPa·s

CC(C)C(C)C
viscosity (298 K, 101.33 kPa): 0.3249 ± 0.0061 mPa·s

CCCC[N+]1=C2CCCCCN2CCC1.c1c[n-]cn1
viscosity (293.15 K, 100 kPa): 106.7 ± 3.5 mPa·s
viscosity (298.15 K, 100 kPa): 73.92 ± 2 mPa·s
viscosity (303.15 K, 100 kPa): 53.38 ± 1.2 mPa·s
viscosity (308.15 K, 100 kPa): 40.19 ± 0.97 mPa·s
viscosity (313.15 K, 100 kPa): 31.07 ± 0.75 mPa·s

C[N+](C)(C)C.NCC(=O)[O-]
viscosity (303 K, 101 kPa): 306.2 ± 18 mPa·s

C1CC[C@H]2CCCC[C@@H]2C1
viscosity (293.15 K, 101.3 kPa): 2.118 ± 0.032 mPa·s
viscosity (293.15 K, 102 kPa): 2.14 ± 0.02 mPa·s
viscosity (303.15 K, 101 kPa): 1.616 ± 0.039 mPa·s
viscosity (303.15 K, 102 kPa): 1.79 ± 0.02 mPa·s
viscosity (323.15 K, 102 kPa): 1.3 ± 0.02 mPa·s

CCOCCOCCOCCO
viscosity (298.15 K, 101.33 kPa): 7.042 ± 0.079 mPa·s

CCCCn1cc[n+](C)c1.[Cl][Fe-]([Cl])([Cl])[Cl]
viscosity (293.15 K, 101 kPa): 56.56 ± 2.4 mPa·s
viscosity (298.15 K, 101 kPa): 46 ± 1.9 mPa·s
viscosity (303.15 K, 101 kPa): 37.95 ± 1.6 mPa·s
viscosity (308.15 K, 101 kPa): 31.87 ± 1.3 mPa·s
viscosity (313.15 K, 101 kPa): 27.01 ± 1.1 mPa·s
viscosity (318.15 K, 101 kPa): 23.24 ± 0.97 mPa·s
viscosity (323.15 K, 101 kPa): 20.16 ± 0.85 mPa·s

Nc1cccc2ccccc12
viscosity (323.15 K, 101.33 kPa): 11.2 ± 0.11 mPa·s

CCC(=O)OC + C1CCCCC1
viscosity ([1]; 298.15 K, 101 kPa, x1 = 0.0565): 0.827 ± 0.083 mPa·s
viscosity ([1]; 298.15 K, 101 kPa, x1 = 0.1524): 0.742 ± 0.075 mPa·s
viscosity ([1]; 298.15 K, 101 kPa, x1 = 0.2574): 0.67 ± 0.067 mPa·s
viscosity ([1]; 298.15 K, 101 kPa, x1 = 0.3378): 0.626 ± 0.063 mPa·s
viscosity ([1]; 298.15 K, 101 kPa, x1 = 0.4555): 0.578 ± 0.058 mPa·s
viscosity ([1]; 298.15 K, 101 kPa, x1 = 0.4981): 0.565 ± 0.057 mPa·s
viscosity ([1]; 298.15 K, 101 kPa, x1 = 0.5542): 0.55 ± 0.055 mPa·s
viscosity ([1]; 298.15 K, 101 kPa, x1 = 0.6536): 0.532 ± 0.053 mPa·s
viscosity ([1]; 298.15 K, 101 kPa, x1 = 0.7514): 0.522 ± 0.052 mPa·s
viscosity ([1]; 298.15 K, 101 kPa, x1 = 0.8265): 0.519 ± 0.052 mPa·s
viscosity ([1]; 298.15 K, 101 kPa, x1 = 0.9564): 0.526 ± 0.053 mPa·s
viscosity ([1]; 308.15 K, 101 kPa, x1 = 0.0565): 0.699 ± 0.07 mPa·s
viscosity ([1]; 308.15 K, 101 kPa, x1 = 0.1524): 0.621 ± 0.062 mPa·s
viscosity ([1]; 308.15 K, 101 kPa, x1 = 0.2574): 0.556 ± 0.056 mPa·s
viscosity ([1]; 308.15 K, 101 kPa, x1 = 0.3378): 0.517 ± 0.052 mPa·s
viscosity ([1]; 308.15 K, 101 kPa, x1 = 0.4555): 0.475 ± 0.048 mPa·s
viscosity ([1]; 308.15 K, 101 kPa, x1 = 0.4981): 0.463 ± 0.046 mPa·s
viscosity ([1]; 308.15 K, 101 kPa, x1 = 0.5542): 0.45 ± 0.045 mPa·s
viscosity ([1]; 308.15 K, 101 kPa, x1 = 0.6536): 0.434 ± 0.044 mPa·s
viscosity ([1]; 308.15 K, 101 kPa, x1 = 0.7514): 0.426 ± 0.043 mPa·s
viscosity ([1]; 308.15 K, 101 kPa, x1 = 0.8265): 0.424 ± 0.043 mPa·s
viscosity ([1]; 308.15 K, 101 kPa, x1 = 0.9564): 0.432 ± 0.043 mPa·s

O=S(=O)(O)CCN1CCOCC1 + O
viscosity ([1]; 298.15 K, 101.3 kPa, x1 = 0.003662): 0.918 ± 0.037 mPa·s
viscosity ([1]; 298.15 K, 101.3 kPa, x1 = 0.0073): 0.98 ± 0.04 mPa·s
viscosity ([1]; 298.15 K, 101.3 kPa, x1 = 0.00959): 1.006 ± 0.041 mPa·s
viscosity ([1]; 298.15 K, 101.3 kPa, x1 = 0.01075): 1.035 ± 0.042 mPa·s
viscosity ([1]; 298.15 K, 101.3 kPa, x1 = 0.01417): 1.101 ± 0.045 mPa·s
viscosity ([1]; 298.15 K, 101.3 kPa, x1 = 0.01767): 1.153 ± 0.047 mPa·s
viscosity ([1]; 308.15 K, 101.3 kPa, x1 = 0.003662): 0.743 ± 0.03 mPa·s
viscosity ([1]; 308.15 K, 101.3 kPa, x1 = 0.0073): 0.792 ± 0.032 mPa·s
viscosity ([1]; 308.15 K, 101.3 kPa, x1 = 0.00959): 0.814 ± 0.033 mPa·s
viscosity ([1]; 308.15 K, 101.3 kPa, x1 = 0.01075): 0.836 ± 0.034 mPa·s
viscosity ([1]; 308.15 K, 101.3 kPa, x1 = 0.01417): 0.893 ± 0.036 mPa·s
viscosity ([1]; 308.15 K, 101.3 kPa, x1 = 0.01767): 0.932 ± 0.038 mPa·s
viscosity ([1]; 318.15 K, 101.3 kPa, x1 = 0.003662): 0.616 ± 0.025 mPa·s
viscosity ([1]; 318.15 K, 101.3 kPa, x1 = 0.0073): 0.657 ± 0.027 mPa·s
viscosity ([1]; 318.15 K, 101.3 kPa, x1 = 0.00959): 0.676 ± 0.027 mPa·s
viscosity ([1]; 318.15 K, 101.3 kPa, x1 = 0.01075): 0.693 ± 0.028 mPa·s
viscosity ([1]; 318.15 K, 101.3 kPa, x1 = 0.01417): 0.737 ± 0.03 mPa·s
viscosity ([1]; 318.15 K, 101.3 kPa, x1 = 0.01767): 0.772 ± 0.031 mPa·s

CC(C)[C@H](N)C(=O)[O-].CCCC[P+](CCCC)(CCCC)CCCN
viscosity (298.15 K, 101 kPa): 1015 ± 50 mPa·s
